According to patent US7001921B1, “Cell adhesion inhibitors” (Biogen Idec MA Inc., priority 1995, dated 2006):

target: T1, VLA4 (Homo sapiens, UniProt P05556+P13612); assay: Inhibition of VLA4-dependent adhesion to BSA-CS1 (labelled Ramos cells); assay type: cell-based; conditions: binding of BCECF-AM labelled Ramos cells to CS1 peptide-coated wells, 2 mM MnCl2, 30 minutes at room temperature; IC50 range
T1 construct: endogenous in cells; host or cells: Ramos cells
In short: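 Ramos cells labelled with 2 μM BCECF-AM, with 2 mM MnCl2 added to upregulate VLA4, were incubated with test compound (final 0.01 nM–10 μM, triplicate) on BSA-CS1-coated wells for 30 min at room temperature in TRIS buffer pH 7.4. After washing, bound fluorescence was read, with uncoated wells giving non-specific binding.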

T1 sequence (P13612 34-1032): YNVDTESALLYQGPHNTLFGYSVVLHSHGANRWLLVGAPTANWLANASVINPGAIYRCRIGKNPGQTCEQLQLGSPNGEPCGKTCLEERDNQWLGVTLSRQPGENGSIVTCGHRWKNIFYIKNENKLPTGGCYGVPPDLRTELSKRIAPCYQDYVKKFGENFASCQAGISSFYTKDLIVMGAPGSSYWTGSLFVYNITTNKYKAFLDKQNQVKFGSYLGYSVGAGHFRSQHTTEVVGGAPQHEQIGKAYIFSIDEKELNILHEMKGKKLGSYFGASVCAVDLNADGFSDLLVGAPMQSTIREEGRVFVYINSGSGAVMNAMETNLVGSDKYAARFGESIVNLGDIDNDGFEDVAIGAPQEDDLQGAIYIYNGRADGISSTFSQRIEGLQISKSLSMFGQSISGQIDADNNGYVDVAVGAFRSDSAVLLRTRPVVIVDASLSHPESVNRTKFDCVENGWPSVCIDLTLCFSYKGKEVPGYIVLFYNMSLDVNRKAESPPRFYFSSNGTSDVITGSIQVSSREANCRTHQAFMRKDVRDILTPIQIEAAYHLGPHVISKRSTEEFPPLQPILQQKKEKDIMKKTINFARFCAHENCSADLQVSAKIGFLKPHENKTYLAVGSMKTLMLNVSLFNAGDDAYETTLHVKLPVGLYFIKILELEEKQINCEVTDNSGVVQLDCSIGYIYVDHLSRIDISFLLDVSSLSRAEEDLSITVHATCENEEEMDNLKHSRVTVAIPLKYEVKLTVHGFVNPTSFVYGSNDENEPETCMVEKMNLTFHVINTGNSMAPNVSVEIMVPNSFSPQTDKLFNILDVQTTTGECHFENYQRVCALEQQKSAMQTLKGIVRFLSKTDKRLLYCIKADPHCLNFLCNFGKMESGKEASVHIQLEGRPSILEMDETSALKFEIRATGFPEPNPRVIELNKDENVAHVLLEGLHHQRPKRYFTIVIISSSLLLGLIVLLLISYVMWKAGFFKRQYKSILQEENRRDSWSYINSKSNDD
T1 sequence (P05556 21-798): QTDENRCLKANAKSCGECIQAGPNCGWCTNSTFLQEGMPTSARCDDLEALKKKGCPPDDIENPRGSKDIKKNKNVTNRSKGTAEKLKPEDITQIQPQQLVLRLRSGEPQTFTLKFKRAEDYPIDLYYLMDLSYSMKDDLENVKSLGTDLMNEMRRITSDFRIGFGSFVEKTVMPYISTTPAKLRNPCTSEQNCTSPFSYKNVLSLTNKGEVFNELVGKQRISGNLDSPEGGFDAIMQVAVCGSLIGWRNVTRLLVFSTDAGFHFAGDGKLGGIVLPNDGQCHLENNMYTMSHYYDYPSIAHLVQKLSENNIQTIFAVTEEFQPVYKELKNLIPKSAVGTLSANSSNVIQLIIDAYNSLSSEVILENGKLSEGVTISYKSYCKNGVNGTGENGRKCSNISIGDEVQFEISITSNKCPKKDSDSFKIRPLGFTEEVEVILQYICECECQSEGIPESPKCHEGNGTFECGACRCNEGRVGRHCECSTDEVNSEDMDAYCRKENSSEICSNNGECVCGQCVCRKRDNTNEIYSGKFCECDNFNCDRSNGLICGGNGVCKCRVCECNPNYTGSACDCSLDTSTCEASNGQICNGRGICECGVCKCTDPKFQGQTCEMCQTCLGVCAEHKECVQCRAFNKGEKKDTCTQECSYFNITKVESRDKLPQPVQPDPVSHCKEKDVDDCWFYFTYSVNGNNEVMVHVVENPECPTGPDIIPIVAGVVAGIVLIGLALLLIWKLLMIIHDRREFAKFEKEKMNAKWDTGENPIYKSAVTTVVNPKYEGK

| IC50 [nM] | SMILES |
| --- | --- |
| 50 to 10000 | COc1ccc(C(CC(=O)O)NC(=O)C(CC(C)C)NC(=O)Cc2ccc(O)cc2)cc1 (centres unmarked) [compound 1173] |
| 50 to 10000 | COc1ccc(C(CC(=O)O)NC(=O)C(CCSC)NC(=O)Cc2ccc(O)cc2)cc1 (centres unmarked) [compound 1174] |
| 50 to 10000 | COc1ccc(C(CC(=O)O)NC(=O)C(CCSC)NC(=O)Cc2ccccc2)cc1 (centres unmarked) [compound 1175] |
| 50 to 10000 | O=C(O)CC(NC(=O)C(CC(=O)N1CCSCC1)NC(=O)Cc1ccc(NC(=O)Nc2ccccc2)cc1)c1ccc2c(c1)OCO2 (centres unmarked) [compound 1176] |
| 50 to 10000 | C#CCN(C)C(=O)CC(NC(=O)Cc1ccc(NC(=O)Nc2ccccc2)cc1)C(=O)NC(CC(=O)O)c1ccc2c(c1)OCO2 (centres unmarked) [compound 1177] |
| 50 to 10000 | COc1ccc(C(CC(=O)O)NC(=O)C(CC(C)C)NC(=O)Cc2ccccc2)cc1 (centres unmarked) [compound 1178] |
| < 50 | Cc1ccccc1NC(=O)Nc1ccc(CC(=O)NC(CC(C)C)C(=O)NC(CC(=O)O)c2ccc3c(c2)OCO3)cc1 (centres unmarked) [compound 1179] |
| 50 to 10000 | COc1ccc(C(CC(=O)O)NC(=O)C(CC(C)C)NC(=O)Cc2ccc(NC(=O)Nc3nccs3)cc2)cc1 (centres unmarked) [compound 1180] |
| 50 to 10000 | CC(C)CC(NC(=O)Cc1ccc(NC(=O)Nc2cccc(Cl)c2)cc1)C(=O)NC(CC(=O)O)c1ccc2c(c1)OCO2 (centres unmarked) [compound 1181] |
| 50 to 10000 | CC(C)CC(NC(=O)Cc1ccc(NC(=O)Nc2ccncc2)cc1)C(=O)NC(CC(=O)O)c1ccc2c(c1)OCO2 (centres unmarked) [compound 1182] |
| < 50 | CC(C)CC(NC(=O)Cc1ccc(NC(=O)Nc2ccccc2Cl)cc1)C(=O)NC(CC(=O)O)c1ccc2c(c1)OCO2 (centres unmarked) [compound 1185] |
| > 10000 | CC(C)CC(NC(=O)CCCNC(=O)Nc1ccccc1)C(=O)NC(CC(=O)O)c1ccccc1 (centres unmarked) [compound 1187] |
| > 10000 | CC(C)CC(NC(=O)C1(c2ccccc2)CC1)C(=O)NC(CC(=O)O)c1ccc2c(c1)OCO2 (centres unmarked) [compound 1188] |
| > 10000 | CC(C)CC(NC(=O)C1CCc2ccccc21)C(=O)NC(CC(=O)O)c1ccccc1 (centres unmarked) [compound 1189] |
| < 50 | COc1ccc(C(CC(=O)O)NC(=O)C(CC(C)C)NC(=O)Cc2ccc(NC(=O)Nc3ccccc3C)cc2)cc1 (centres unmarked) [compound 1190] |
| 50 to 10000 | O=C(O)CC(NC(=O)C(CCN1CCOCC1)NC(=O)Cc1ccc(NC(=O)Nc2ccccc2)cc1)c1ccc2c(c1)OCO2 (centres unmarked) [compound 1191] |
| < 50 | COc1ccc(C(CC(=O)O)NC(=O)C(CC(C)C)NC(=O)Cc2ccc(NC(=O)Nc3ccccc3OC)cc2)cc1 (centres unmarked) [compound 1192] |
| 50 to 10000 | COc1ccc(C(CC(=O)O)NC(=O)C(CC(C)C)N(C)C(=O)Cc2ccc(NC(=O)Nc3ccccc3)cc2)cc1 (centres unmarked) [compound 1193] |
| 50 to 10000 | COc1ccc(C(CC(=O)O)NC(=O)C(CC(C)C)NC(=O)Cc2ccc(NC(=O)Nc3ccccn3)cc2)cc1 (centres unmarked) [compound 1194] |
| < 50 | COc1ccc(C(CC(=O)O)NC(=O)C(CC(C)C)NC(=O)Cc2ccc(NC(=O)Nc3ccccc3)cc2)cc1OC (centres unmarked) [compound 1196] |
| > 10000 | CC(C)CC(NC(=O)Cc1ccc(NC(=O)N2CCOCC2)cc1)C(=O)NC(CC(=O)O)c1ccc2c(c1)OCO2 (centres unmarked) [compound 1198] |
| 50 to 10000 | COc1ccc(C(CC(=O)O)NC(=O)C(CC[S+](C)[O-])NC(=O)Cc2ccc(NC(=O)Nc3ccccc3)cc2)cc1 (centres unmarked) [compound 1199] |
| 50 to 10000 | CCc1ccccc1NC(=O)Nc1ccc(CC(=O)NC(CC(C)C)C(=O)NC(CC(=O)O)c2ccc3c(c2)OCO3)cc1 (centres unmarked) [compound 1200] |
| 50 to 10000 | CC(C)CC(NC(=O)Cc1ccc(NC(=O)Nc2ccccc2[N+](=O)[O-])cc1)C(=O)NC(CC(=O)O)c1ccc2c(c1)OCO2 (centres unmarked) [compound 1201] |
| < 50 | CC(C)CC(NC(=O)Cc1ccc(NC(=O)Nc2ccccc2C(C)C)cc1)C(=O)NC(CC(=O)O)c1ccc2c(c1)OCO2 (centres unmarked) [compound 1206] |

| IC50 [nM] | SMILES |
| --- | --- |
| > 10000 | COc1ccc(C(CC(=O)O)NC(=O)C(CC(C)C)NC(=O)Cc2ccc(NC(=O)Nc3ccccc3C(C)C)cc2)cc1 (centres unmarked) [compound 1207] |
| 50 to 10000 | CCc1ccccc1NC(=O)Nc1ccc(CC(=O)NC(CC(C)C)C(=O)NC(CC(=O)O)c2ccc(OC)cc2)cc1 (centres unmarked) [compound 1208] |
| > 10000 | CC(C)CC(NC(=O)Cc1ccc(NC(=O)Nc2ccccc2C(C)(C)C)cc1)C(=O)NC(CC(=O)O)c1ccc2c(c1)OCO2 (centres unmarked) [compound 1209] |
| < 50 | Cc1ccccc1NC(=O)Nc1ccc(CC(=O)NC(CC(C)C)C(=O)NC(CC(=O)O)c2ccc3c(c2)OCCO3)cc1 (centres unmarked) [compound 1210] |
| 50 to 10000 | CN(C)C(=O)CC(NC(=O)Cc1ccc(NC(=O)Nc2ccccc2)cc1)C(=O)NC(CC(=O)O)c1ccc2c(c1)OCO2 (centres unmarked) [compound 1214] |
| > 10000 | CN(C)CCC(NC(=O)Cc1ccc(NC(=O)Nc2ccccc2)cc1)C(=O)NC(CC(=O)O)c1ccc2c(c1)OCO2 (centres unmarked) [compound 1215] |
| 50 to 10000 | O=C(O)CC(NC(=O)C(CCC(=O)N1CCOCC1)NC(=O)Cc1ccc(NC(=O)Nc2ccccc2)cc1)c1ccc2c(c1)OCO2 (centres unmarked) [compound 1216] |
| < 50 | COc1ccc(C(CC(=O)O)NC(=O)C(CCCCNC(=O)OCc2ccccc2)NC(=O)Cc2ccc(NC(=O)Nc3ccccc3C)cc2)cc1OC (centres unmarked) [compound 1217] |
| 50 to 10000 | COc1ccc(C(CC(=O)O)NC(=O)C(CC(C)C)NC(=O)Cc2ccc(NC(=O)Nc3ccccn3)cc2)cc1OC (centres unmarked) [compound 1218] |
| 50 to 10000 | COc1ccc(C(CC(=O)O)NC(=O)C(CC(C)C)NC(=O)Cc2ccc(NC(=O)Nc3cccnc3)cc2)cc1OC (centres unmarked) [compound 1219] |
| 50 to 10000 | COc1ccc(C(CC(=O)O)NC(=O)C(CC(C)C)NC(=O)Cc2ccc(NC(=O)Nc3cccnc3C)cc2)cc1 (centres unmarked) [compound 1220] |
| < 50 | COc1cc(CC(=O)NC(CC(C)C)C(=O)NC(CC(=O)O)c2ccc3c(c2)OCO3)ccc1NC(=O)Nc1ccccc1C (centres unmarked) [compound 1221] |
| < 50 | COc1cc(CC(=O)NC(CC(C)C)C(=O)NC(CC(=O)O)c2ccc3c(c2)OCO3)ccc1NC(=O)Nc1ccccc1Cl (centres unmarked) [compound 1222] |
| < 50 | COc1ccc(C(CC(=O)O)NC(=O)C(CCSC)NC(=O)Cc2ccc(NC(=O)Nc3ccccc3C)cc2)cc1OC (centres unmarked) [compound 1224] |
| < 50 | COc1ccc(C(CC(=O)O)NC(=O)C(CCSC)NC(=O)Cc2ccc(NC(=O)Nc3ccccc3C)cc2)cc1 (centres unmarked) [compound 1238] |
| < 50 | Cc1ccccc1NC(=O)Nc1ccc(CC(=O)NC(CCS(C)(=O)=O)C(=O)NC(CC(=O)O)c2ccc3c(c2)OCO3)cc1 (centres unmarked) [compound 1245] |
| < 50 | Cc1ccccc1NC(=O)Nc1ccc(CC(=O)NC(CC(C)C)C(=O)NC(CC(=O)O)c2ccc(F)cc2)cc1 (centres unmarked) [compound 1248] |
| < 50 | CC(=O)NCCCCC(NC(=O)Cc1ccc(NC(=O)Nc2ccccc2C)cc1)C(=O)NC(CC(=O)O)c1ccc2c(c1)OCO2 (centres unmarked) [compound 1270] |
| < 50 | Cc1ccccc1NC(=O)Nc1ccc(CC(=O)NC(CC(C)C)C(=O)NC(CC(=O)O)c2ccc3c(c2)OCO3)cc1 (centres unmarked) [compound 1282] |
| < 50 | Cc1ccccc1NC(=O)Nc1ccc(CC(=O)NC(CCCCNS(C)(=O)=O)C(=O)NC(CC(=O)O)c2ccc3c(c2)OCO3)cc1 (centres unmarked) [compound 1294] |
| < 50 | Cc1ccccc1NC(=O)Nc1ccc(CC(=O)NC(CC(C)C)C(=O)NC(CC(=O)O)c2ccc(C(=O)O)cc2)cc1 (centres unmarked) [compound 1321] |
| < 50 | COc1nc(CC(=O)NC(CC(C)C)C(=O)NC(CC(=O)O)c2ccc3c(c2)OCO3)ccc1NC(=O)Nc1ccccc1C (centres unmarked) [compound 1336] |
| 50 to 10000 | CN=C(Nc1ccccc1)Nc1ccc(CC(=O)NC(CC(C)C)C(=O)NC(CC(=O)O)c2ccc3c(c2)OCO3)cc1 (centres unmarked) [compound 1380] |
| < 50 | COC(=O)c1ccc(C(CC(=O)O)NC(=O)C(CCCCNS(C)(=O)=O)NC(=O)Cc2ccc(NC(=O)Nc3ccccc3C)cc2)cc1 (centres unmarked) [compound 1382] |
| 50 to 10000 | CC(C)CC(NC(=O)Cc1ccc(Nc2ncc[nH]2)cc1)C(=O)NC(CC(=O)O)c1ccc2c(c1)OCO2 (centres unmarked) [compound 1390] |
